Measured values as given in PMC8342458, “GluN2A and GluN2B NMDA receptors use distinct allosteric routes” (Nature Communications, 2021).

Columns and labels:
[1] = target: T1, GluN1-N512C-L777C/GluN2B-E517C-L781C receptors (UniProt P35439+Q01097, E517C/L777C/L781C/N521C); test: TEVC recordings in Xenopus oocytes, zinc and ifenprodil inhibition dose-response; format: cell-based, rat (GluN1), mouse (GluN2B)
T1 construct: For full-length multimeric membrane-embedded receptors studied in cellulo, as done in the present work; expressed in transfected cells; host or cells: Xenopus laevis oocytes
Experimental: (§1) The pcDNA3-based expression plasmids for rat GluN1-1a (named GluN1 herein), rat GluN2A, and mouse GluN2B (also known as ε2) subunits, Pfu-based site-directed mutagenesis strategy, and sequencing procedure have been described previously[68],[69]. Incorporation of the unnatural amino acids (UAAs) AzF and BzF into NMDARs was performed using the genetic code expansion methodology as previously described[52],[53],[83]. The plasmid pSVB.Yam carrying the gene encoding the amber suppressor tRNA derived from B. stearothermophilus Tyr-tRNACUA, while the aminoacyl-tRNA synthetases (aaRS) construction for AzF and BzF derived from E. coli TyrRS[84],[85].
(§2) Recombinant NMDARs were expressed in Xenopus laevis oocytes after nuclear injection of 36 nl of a mixture of cDNAs (at 10–30 ng/μl) encoding various GluN1 and GluN2 subunits (ratio 1:1). Oocytes were prepared, injected, incubated, and voltage-clamped as described previously. For UAA incorporation, oocytes were co-injected with 36 nl of a cDNA mixture encoding for of GluN1, GluN2, Yam, and aaRS as follows, unless otherwise indicated in the text: GluN1-K178amber (120 ng/μl), GluN2A (80 ng/µl) or GluN2B (120 ng/μl), Yam (10 ng/μl), AzF-RS (5 ng/μl). After injection, oocytes were incubated at 19 °C in a Barth solution containing (in mM) 88 NaCl, 1 KCl, 0.33 Ca(NO3)2, 0.41 CaCl2, 0.82 MgSO4, 2.4 NaHCO3, 10 HEPES (pH adjusted to 7.6 with NaOH) supplemented with gentamicin ([…]) and the NMDAR glutamate binding site competitive antagonist D-APV (50 μM). AzF and BzF were added to the incubation medium at final concentrations of 1 mM and 2 mM, respectively.
(§3) For all experiments, except those on pH and spermine sensitivity, the standard external solution contained (in mM): 100 NaCl, 0.3 BaCl2, and 5 HEPES (pH adjusted to 7.3 with KOH). […] For the pH and spermine sensitivity experiments, an external solution enriched in HEPES was used to insure proper pH buffering. Unless otherwise mentioned, NMDAR-mediated currents were induced by simultaneously applications of saturating concentrations of glutamate and glycine (100 μM each). Glutamate and glycine dose-response curves (DRC) were performed in the presence of 100 µM glycine and 100 µM glutamate, respectively. Recordings were performed at a holding potential of −60 mV and at room temperature. Data were collected and analyzed using Clampex 10.5 and Clampfit 10.5 (Molecular Devices), respectively, and fitted using KaleidaGraph 4.0 (Synergy software).
(§4) EC50 and nH were fitted as free parameters. […] For proton DRC, corrections for small shifts in the reference potential of bath electrodes and analysis of the data were performed as previously described. Spermine experiments were performed and analyzed as previously described. In brief, spermine sensitivity was assessed at pH 6.5 and at a holding potential of −30 mV to maximize the spermine induced potentiation. […] EC50, a and nH were set as free parameters. MK-801 is an NMDAR open channel blocker with slow reversibility and, consequently, the rate at which MK-801 inhibits NMDAR responses depends on the level of channel activity, that is, channel open probability (Po). Based on this principle, MK-801 is classically used to estimate the level of NMDAR channel activity in macroscopic whole-cell recordings[36],[47],[56],[86],[87]. Note, however, that MK- 801 inhibition kinetics can index relative, not absolute, Po. MK-801 solutions (10 nM for GluN2A-containing receptors and 50 nM for GluN2B-containing receptors) were prepared by dilution of a stock solution (50 mM) into the agonist containing solutions. MK-801 time constants of inhibition (τon) were obtained by fitting currents with a single-exponential component to a time window corresponding to 10–90% of maximum inhibition. On-rate (kon) constants were then calculated assuming a pseudo first-order reaction scheme: kon = 1 / ([MK-801]*τon).

[2] = target: T2, GluN1-L777C/GluN2B-E517C-L781C receptors (UniProt P35439+Q01097, E517C/L777C/L781C/N521C); test: as above; format: cell-based, rat (GluN1), mouse (GluN2B); details: read-out: Zn2+ IC50
T2 construct: For full-length multimeric membrane-embedded receptors studied in cellulo, as done in the present work; expressed in transfected cells; host or cells: Xenopus laevis oocytes
Experimental: as §1, §2, §3, §4

[3] = target: T3, GluN1/GluN2B-N218C receptors (UniProt P35439+Q01097, N218C); test: as above; format: cell-based, rat (GluN1), mouse (GluN2B)
T3 construct: For full-length multimeric membrane-embedded receptors studied in cellulo, as done in the present work; expressed in transfected cells; host or cells: Xenopus laevis oocytes
Experimental: as §1, §2, §3, §4

[4] = target: T4, GluN1/GluN2A-V217C receptors (Rattus norvegicus, UniProt P35439+Q00959, V217C); test: TEVC recordings in Xenopus oocytes, zinc inhibition dose-response; format: cell-based
T4 construct: For full-length multimeric membrane-embedded receptors studied in cellulo, as done in the present work; expressed in transfected cells; host or cells: Xenopus laevis oocytes
Experimental: as §1, §2, §3, §4

[5] = target: T5, GluN1-N521C-L777C/GluN2A-E516C-L780C (CC/CC) receptors (Rattus norvegicus, UniProt P35439+Q00959, E516C/L777C/L780C/N521C); test: TEVC recordings in Xenopus oocytes, zinc sensitivity; format: cell-based
T5 construct: For full-length multimeric membrane-embedded receptors studied in cellulo, as done in the present work; expressed in transfected cells; host or cells: Xenopus laevis oocytes
Experimental: as §1, §2, §3, §4

T4 sequence (Q00959 23-1464 V217C, other chains not shown): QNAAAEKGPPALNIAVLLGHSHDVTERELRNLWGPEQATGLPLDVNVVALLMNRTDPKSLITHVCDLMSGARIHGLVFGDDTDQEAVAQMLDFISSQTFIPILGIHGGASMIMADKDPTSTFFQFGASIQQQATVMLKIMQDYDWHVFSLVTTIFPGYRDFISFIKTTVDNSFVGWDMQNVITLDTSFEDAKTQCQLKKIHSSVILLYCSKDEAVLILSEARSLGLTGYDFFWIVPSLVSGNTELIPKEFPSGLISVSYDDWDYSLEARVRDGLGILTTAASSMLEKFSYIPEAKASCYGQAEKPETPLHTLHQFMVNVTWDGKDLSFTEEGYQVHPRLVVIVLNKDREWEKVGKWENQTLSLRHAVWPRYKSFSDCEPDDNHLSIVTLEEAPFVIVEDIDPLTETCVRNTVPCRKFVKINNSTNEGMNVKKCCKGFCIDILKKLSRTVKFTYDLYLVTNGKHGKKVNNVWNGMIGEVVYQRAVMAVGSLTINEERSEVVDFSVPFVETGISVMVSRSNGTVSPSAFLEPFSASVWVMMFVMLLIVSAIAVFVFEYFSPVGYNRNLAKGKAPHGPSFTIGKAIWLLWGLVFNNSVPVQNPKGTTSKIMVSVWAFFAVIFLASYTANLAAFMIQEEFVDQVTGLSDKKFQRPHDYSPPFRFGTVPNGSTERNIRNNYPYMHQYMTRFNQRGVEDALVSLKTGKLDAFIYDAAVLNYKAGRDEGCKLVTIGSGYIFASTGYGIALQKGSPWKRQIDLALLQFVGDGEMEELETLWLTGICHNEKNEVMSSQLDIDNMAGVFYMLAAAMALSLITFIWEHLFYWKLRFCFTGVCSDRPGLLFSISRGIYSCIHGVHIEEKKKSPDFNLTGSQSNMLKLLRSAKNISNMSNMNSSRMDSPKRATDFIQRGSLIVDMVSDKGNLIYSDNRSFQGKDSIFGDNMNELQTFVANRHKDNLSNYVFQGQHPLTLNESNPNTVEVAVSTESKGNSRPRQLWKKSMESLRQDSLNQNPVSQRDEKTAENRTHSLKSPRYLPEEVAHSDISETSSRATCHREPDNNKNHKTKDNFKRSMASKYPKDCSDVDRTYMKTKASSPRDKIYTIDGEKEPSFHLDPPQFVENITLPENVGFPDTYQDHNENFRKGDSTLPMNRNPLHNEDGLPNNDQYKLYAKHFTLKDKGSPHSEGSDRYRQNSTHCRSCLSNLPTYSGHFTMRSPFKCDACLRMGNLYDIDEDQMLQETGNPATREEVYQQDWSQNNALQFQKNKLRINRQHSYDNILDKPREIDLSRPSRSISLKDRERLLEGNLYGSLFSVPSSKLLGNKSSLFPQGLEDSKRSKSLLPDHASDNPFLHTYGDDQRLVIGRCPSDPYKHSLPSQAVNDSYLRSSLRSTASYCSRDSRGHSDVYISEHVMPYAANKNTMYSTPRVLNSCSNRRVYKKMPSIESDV
T1 sequence (Q01097 27-1482 E517C/L781C, other chains not shown): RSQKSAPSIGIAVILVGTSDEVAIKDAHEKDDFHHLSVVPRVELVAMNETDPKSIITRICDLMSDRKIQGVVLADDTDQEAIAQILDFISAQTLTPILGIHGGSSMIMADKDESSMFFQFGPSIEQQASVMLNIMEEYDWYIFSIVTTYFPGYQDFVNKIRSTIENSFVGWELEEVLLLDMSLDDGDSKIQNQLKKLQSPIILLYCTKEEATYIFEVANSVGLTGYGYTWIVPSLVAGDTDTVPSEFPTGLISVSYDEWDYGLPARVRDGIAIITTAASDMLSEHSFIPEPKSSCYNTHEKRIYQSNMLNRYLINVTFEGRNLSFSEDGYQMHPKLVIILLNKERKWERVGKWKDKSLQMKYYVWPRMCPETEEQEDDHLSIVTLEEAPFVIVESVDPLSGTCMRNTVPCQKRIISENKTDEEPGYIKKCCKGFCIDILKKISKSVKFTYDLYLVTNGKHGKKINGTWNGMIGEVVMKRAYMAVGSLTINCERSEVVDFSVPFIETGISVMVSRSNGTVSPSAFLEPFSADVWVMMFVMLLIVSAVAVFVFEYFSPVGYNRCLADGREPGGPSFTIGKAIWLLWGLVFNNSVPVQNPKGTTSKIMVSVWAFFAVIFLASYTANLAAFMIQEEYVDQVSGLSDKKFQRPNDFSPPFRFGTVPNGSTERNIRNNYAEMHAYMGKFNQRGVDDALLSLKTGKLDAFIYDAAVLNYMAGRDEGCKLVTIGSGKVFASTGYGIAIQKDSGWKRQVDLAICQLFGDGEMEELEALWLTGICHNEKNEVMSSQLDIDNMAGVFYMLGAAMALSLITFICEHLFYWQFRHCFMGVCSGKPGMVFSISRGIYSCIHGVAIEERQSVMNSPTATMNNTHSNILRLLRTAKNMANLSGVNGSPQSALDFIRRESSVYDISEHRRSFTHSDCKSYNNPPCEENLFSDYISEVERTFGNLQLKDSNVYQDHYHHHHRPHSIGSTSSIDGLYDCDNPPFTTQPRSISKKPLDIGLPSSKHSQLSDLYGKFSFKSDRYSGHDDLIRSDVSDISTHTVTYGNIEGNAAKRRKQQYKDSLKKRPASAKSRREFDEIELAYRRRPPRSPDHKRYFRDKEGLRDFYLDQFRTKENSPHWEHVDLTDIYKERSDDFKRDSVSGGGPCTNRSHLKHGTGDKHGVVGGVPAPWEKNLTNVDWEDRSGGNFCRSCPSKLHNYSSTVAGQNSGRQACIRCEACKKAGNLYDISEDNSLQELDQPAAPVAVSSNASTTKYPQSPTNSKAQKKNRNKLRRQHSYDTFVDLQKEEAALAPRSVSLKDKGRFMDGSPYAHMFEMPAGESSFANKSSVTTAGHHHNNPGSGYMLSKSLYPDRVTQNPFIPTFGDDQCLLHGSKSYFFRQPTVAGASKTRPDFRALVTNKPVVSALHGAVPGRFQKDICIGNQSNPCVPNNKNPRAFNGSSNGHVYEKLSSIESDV
T5 sequence (Q00959 23-1464 E516C/L780C, other chains not shown): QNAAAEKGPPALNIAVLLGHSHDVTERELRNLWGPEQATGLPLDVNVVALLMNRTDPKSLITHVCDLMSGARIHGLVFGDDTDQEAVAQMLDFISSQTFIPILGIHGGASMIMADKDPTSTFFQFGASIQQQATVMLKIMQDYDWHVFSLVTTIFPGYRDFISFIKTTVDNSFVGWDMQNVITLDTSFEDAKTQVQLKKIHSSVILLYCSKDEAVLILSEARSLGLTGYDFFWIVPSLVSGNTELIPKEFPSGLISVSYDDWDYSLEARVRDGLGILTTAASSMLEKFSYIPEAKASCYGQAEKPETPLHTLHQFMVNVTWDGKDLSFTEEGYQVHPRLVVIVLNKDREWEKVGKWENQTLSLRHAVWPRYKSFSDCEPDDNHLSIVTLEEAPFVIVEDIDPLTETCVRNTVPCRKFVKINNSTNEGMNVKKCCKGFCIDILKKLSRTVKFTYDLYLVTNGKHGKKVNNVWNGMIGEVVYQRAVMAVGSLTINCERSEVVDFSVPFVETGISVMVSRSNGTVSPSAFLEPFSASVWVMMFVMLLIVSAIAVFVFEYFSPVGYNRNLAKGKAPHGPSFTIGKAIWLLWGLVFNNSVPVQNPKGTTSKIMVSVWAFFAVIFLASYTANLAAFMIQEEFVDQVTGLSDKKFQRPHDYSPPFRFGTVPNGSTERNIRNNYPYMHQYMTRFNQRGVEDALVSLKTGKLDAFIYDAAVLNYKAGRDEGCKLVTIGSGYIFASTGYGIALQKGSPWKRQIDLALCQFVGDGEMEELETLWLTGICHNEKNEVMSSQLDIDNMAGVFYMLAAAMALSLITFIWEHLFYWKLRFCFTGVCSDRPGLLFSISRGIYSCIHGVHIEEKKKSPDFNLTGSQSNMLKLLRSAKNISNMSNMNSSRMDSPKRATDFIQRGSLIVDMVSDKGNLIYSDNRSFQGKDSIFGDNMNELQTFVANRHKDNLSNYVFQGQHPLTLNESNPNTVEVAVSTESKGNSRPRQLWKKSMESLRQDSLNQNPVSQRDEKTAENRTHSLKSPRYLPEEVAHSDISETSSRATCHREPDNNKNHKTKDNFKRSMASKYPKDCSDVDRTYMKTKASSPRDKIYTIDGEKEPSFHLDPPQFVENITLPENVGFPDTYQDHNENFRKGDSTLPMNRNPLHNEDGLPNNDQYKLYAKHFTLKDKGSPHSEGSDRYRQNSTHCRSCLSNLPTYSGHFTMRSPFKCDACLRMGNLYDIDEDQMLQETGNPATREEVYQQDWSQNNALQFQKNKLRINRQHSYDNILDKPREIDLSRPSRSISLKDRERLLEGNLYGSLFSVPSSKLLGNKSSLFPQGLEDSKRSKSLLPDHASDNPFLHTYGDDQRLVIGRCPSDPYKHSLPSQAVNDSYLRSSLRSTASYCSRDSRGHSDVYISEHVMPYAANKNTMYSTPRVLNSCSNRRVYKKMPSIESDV

[Zn+2] [zinc]
Zn2+ Hill slope (nH) [1]: 0.88 ± 0.05
Izn/Io 0.1 μM ([1]; 0.1 μM zinc): 0.78 ± 0.07
Izn/Io 0.3 μM ([1]; 0.3 μM zinc): 0.60 ± 0.03
Izn/Io 1 μM ([1]; 1 μM zinc): 0.40 ± 0.03
Izn/Io 3 μM ([1]; 3 μM zinc): 0.23 ± 0.03
Izn/Io 10 μM ([1]; 10 μM zinc): 0.10 ± 0.03
IC50 [2]: 720 ± 50 nM
Zn2+ Hill slope (nH) [3]: 1.01 ± 0.01
Izn/Io 0.1 μM ([3]; 0.1 μM zinc): 0.95 ± 0.07
Izn/Io 1 μM ([3]; 1 μM zinc): 0.72 ± 0.08
Izn/Io 10 μM ([3]; 10 μM zinc): 0.22 ± 0.07
IC50 ([3]; read-out: Zn2+ IC50): 3.06 ± 0.04 µM
Zn2+ Hill slope (nH) [4]: 0.44 ± 0.08
maximal level of zinc inhibition [4]: 40%
Izn/Io 1 nM ([4]; 1 nM zinc): 0.86 ± 0.03
Izn/Io 10 nM ([4]; 10 nM zinc): 0.78 ± 0.03
Izn/Io 50 nM ([4]; 50 nM zinc): 0.70 ± 0.03
Izn/Io 500 nM ([4]; 500 nM zinc): 0.65 ± 0.03
Izn/Io 1000 nM ([4]; 1000 nM zinc): 0.64 ± 0.04
IC50 ([4]; read-out: Zn2+ IC50): 4.64 ± 1.78 nM
Zn2+ Hill slope (nH) [5]: 0.40 ± 0.11
Zn2+ maximal inhibition [5]: 0.37 ± 0.04
Izn/Io 1 nM ([5]; 1 nM zinc): 0.86 ± 0.01
Izn/Io 5 nM ([5]; 5 nM zinc): 0.81 ± 0.02
Izn/Io 50 nM ([5]; 50 nM zinc): 0.72 ± 0.03
Izn/Io 500 nM ([5]; 500 nM zinc): 0.66 ± 0.04
Izn/Io 1000 nM ([5]; 1000 nM zinc): 0.68 ± 0.01
IC50 ([5]; read-out: Zn2+ IC50): 3.44 ± 2.03 nM
